Tests used:
[1] = molecular target: amyloid beta polymer (Homo sapiens, UniProt P05067); assay: Amyloid beta polymer targeting ability, MRI phantom experiment; type: binding; conditions: incubated with amyloid beta polymer 37° C. 24 hours, washed, 9.4T MR
Protocol: • (1) 221.5 uL of HFIP was added to 1 mg of amyloid beta at a concentration of 1 mM, followed by shaking for 1 hour at room temperature using a shaker to remove preaggregation. • (2) The amyloid beta from which the preaggregation was removed was dried, and 221.5 uL of DMSO was added thereto to achieve a 1 mM concentration. Using a mixer and sonicator, a suspension thereof was prepared, and 878.5 uL of PBS (1×, pH 7.4) was added thereto to achieve a 0.2 mM concentration. • (3) After incubating the suspension at 37° C. for 4 days using a shaker, the polymerized amyloid beta polymer was dispensed by 200 uL. Then, 20 μL of a solution in which each of Gd-DO3A-Va and the commercial contrast agent (Gadovist®) was dissolved in PBS at 2 mM concentration was added thereto. The incubation was carried out thereon at 37° C. for 24 hours using a shaker. • (4) After 24 hours has elapsed, centrifugation was performed thereon to remove the supernatant therefrom. The amyloid beta polymer was washed using PBS. 200 μL of a solution of PBS:DMSO=9:1 was added to a pellet to prepare an MRI phantom sample. As a control, a phantom sample obtained by incubating only the amyloid beta polymer was used. […]

[2] = Measurement of relaxivity (r1, r2), phantom in 3T MRI; type: physicochemical; conditions: tertiary distilled water, 0.0625-1 mM, linear regression, in mM-1 s-1 (unit assumed)
Protocol: The relaxivity (r1, r2) of each of synthesized Gd-DO3A-Va, and cyclic commercial contrast agents Gadovist® and Dotarem® as comparison groups material was measured. Specifically, a phantom was prepared by diluting the gadolinium complex in tertiary distilled water to five concentrations (0.0625, 0.125, 0.25, 0.5, 1 mM), and then T1 and T2 relaxation times were measured in 3T MRI. Thus, R (Relaxation rate=1/T) of each concentration was calculated and the relaxivity (r1, r2) result of the gadolinium complex was obtained through linear regression analysis (see FIG. 3) and shown in a following Table 1.

Sequence of amyloid beta polymer (P05067 672-713 limits assumed): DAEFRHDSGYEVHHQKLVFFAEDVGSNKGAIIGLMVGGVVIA

SMILES | contrast enhancement / signal intensity compared to phantom of only amyloid beta polymer [1] | relaxivity r1 [2] | relaxivity r2 [2]
O=C([O-])CN1CCN(CC(=O)[O-])CCN([C@H](CO)[C@H](O)CO)CCN(CC(=O)[O-])CC1.[Gd+3] (racemic) [Gadovist ®] | little difference in contrast enhancement effect | 3.9 ± 0.1 | 4.8 ± 0.1
CNC[C@H](O)[C@@H](O)[C@H](O)[C@H](O)CO.O=C([O-])CN1CCN(CC(=O)[O-])CCN(CC(=O)O)CCN(CC(=O)[O-])CC1.[Gd+3] [Dotarem ®] | – | 3.4 ± 0.1 | 3.9 ± 0.2

Source: patent publication US20250073357A1, “GADOLINIUM-BASED COMPOUND, AND MRI CONTRAST AGENT INCLUDING SAME” (THERANOCURE CO., LTD., priority 2021, published 2025)
